Data on eleven compounds can be found in ChEMBL document CHEMBL1909046, “DrugMatrix in vitro pharmacology data”.

For series [1], the target named is Protein kinase C alpha type (Homo sapiens, UniProt P17252). The series is classed as cell-based. As to conditions: sf9.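 Note: inhibition of PKCalpha kinase activity measured in an enzyme assay with histone as the phosphorylation substrate; in other assays of this panel Not Active means under 50% inhibition at 10 µM.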
The target of series [2] is Sodium-dependent dopamine transporter (Homo sapiens, UniProt Q01959). As to the kind of experiment: DRUGMATRIX: Dopamine Transporter radioligand binding (ligand: [125I] RTI-55). The note with it: cho-k1; Not Active = under 50% inhibition at 10 µM. The series is classed as cell membranes, CHO-K1, Membrane.
Series [3] in a line: DRUGMATRIX: Nicotinic Acetylcholine radioligand binding (ligand: [125I] Epibatidine). The series is classed as cell membranes, Membrane. The note with it: imr-32; Not Active = under 50% inhibition at 10 µM.
A further series addresses T1, Cytochrome P450 2A6 (Homo sapiens, UniProt P11509).
T1 sequence (P11509 whole entry): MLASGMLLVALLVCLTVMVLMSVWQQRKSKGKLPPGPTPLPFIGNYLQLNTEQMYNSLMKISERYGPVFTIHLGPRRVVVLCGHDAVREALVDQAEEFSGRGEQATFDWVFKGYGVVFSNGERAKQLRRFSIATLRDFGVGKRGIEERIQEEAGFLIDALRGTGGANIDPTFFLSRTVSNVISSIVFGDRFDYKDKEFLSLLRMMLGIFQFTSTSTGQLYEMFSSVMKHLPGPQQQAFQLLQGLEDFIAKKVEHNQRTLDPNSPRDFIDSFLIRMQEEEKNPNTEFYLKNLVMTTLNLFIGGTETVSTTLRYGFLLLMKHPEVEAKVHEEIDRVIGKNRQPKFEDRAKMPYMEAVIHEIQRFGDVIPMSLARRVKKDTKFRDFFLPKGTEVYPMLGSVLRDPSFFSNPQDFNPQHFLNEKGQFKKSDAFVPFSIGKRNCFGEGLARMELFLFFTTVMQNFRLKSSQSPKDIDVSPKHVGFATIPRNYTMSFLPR
The note with it: bti-tn-5b1-4.

Series [4] is described as follows: DRUGMATRIX: Imidazoline I2, Central radioligand binding (ligand: [3H] Idazoxan). It counts as cell membranes, Rattus norvegicus, Wistar, Cerebral cortex, Membrane. As to conditions: Not Active = under 50% inhibition at 10 µM.
The target of series [5] is T2, Amine oxidase [flavin-containing] A (Homo sapiens, UniProt P21397).
T2 sequence (P21397 whole entry): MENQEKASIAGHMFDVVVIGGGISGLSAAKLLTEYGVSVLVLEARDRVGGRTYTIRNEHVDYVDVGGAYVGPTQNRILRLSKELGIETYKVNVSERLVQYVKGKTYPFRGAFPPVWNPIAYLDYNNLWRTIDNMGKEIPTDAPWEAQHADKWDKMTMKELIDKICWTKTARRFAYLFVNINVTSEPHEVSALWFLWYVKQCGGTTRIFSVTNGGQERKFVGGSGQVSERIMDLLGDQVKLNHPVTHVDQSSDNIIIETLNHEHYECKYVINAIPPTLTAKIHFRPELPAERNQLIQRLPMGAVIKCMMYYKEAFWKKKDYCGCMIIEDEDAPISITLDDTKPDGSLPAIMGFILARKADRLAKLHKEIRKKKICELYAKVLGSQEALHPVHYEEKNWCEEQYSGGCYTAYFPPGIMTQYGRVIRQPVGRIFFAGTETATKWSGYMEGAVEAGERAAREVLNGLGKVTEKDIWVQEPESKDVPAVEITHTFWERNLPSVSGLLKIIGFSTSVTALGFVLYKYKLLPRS
Description: DRUGMATRIX: Monoamine Oxidase MAO-A enzyme inhibition (substrate: Kynuramine). The note with it: bti-tn-5b1-4; Not Active = under 50% inhibition at 10 µM. The arrangement: species or system BTI-TN-5B1-4.

For a further series, the target named is T3, Endothelin-1 receptor (Homo sapiens, UniProt P25101). Note: in other assays of this panel Not Active means under 50% inhibition at 10 µM.
T3 sequence (P25101 whole entry): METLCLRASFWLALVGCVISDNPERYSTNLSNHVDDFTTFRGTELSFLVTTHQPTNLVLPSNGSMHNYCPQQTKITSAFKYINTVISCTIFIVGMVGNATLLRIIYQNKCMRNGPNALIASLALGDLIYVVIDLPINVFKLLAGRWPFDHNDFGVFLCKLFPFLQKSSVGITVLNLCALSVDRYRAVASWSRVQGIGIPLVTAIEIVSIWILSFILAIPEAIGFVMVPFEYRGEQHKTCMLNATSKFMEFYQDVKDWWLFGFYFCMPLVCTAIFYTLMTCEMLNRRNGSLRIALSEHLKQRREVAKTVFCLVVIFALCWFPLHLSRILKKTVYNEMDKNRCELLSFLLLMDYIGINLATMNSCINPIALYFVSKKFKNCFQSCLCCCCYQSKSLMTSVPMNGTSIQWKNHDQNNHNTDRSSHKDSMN
It counts as cell membranes, Membrane. The note with it: cho-k1.

Another series deals with T4, Adenosine receptor A3 (Homo sapiens, UniProt P0DMS8).
T4 sequence (P0DMS8 whole entry): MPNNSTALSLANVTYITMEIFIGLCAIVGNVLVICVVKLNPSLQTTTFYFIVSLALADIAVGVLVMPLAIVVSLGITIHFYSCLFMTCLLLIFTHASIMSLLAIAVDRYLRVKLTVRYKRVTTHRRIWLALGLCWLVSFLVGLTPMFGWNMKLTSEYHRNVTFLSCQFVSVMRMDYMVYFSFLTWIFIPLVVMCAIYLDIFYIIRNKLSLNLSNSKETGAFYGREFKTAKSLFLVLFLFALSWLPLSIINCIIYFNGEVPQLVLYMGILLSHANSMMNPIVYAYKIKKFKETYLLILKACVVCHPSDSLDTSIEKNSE
It counts as cell membranes, CHO-K1, Membrane. The note with it: cho-k1.

The target of series [6] is Protein phosphatase 3 catalytic subunit alpha (Homo sapiens, UniProt Q08209). The arrangement: species or system Escherichia coli.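 Note: inhibition of calcineurin (PP2B) enzyme activity, measured with DiFMUP as the substrate; in other assays of this panel Not Active means under 50% inhibition at 10 µM.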

Chain of Sodium-dependent dopamine transporter (Q01959 whole entry): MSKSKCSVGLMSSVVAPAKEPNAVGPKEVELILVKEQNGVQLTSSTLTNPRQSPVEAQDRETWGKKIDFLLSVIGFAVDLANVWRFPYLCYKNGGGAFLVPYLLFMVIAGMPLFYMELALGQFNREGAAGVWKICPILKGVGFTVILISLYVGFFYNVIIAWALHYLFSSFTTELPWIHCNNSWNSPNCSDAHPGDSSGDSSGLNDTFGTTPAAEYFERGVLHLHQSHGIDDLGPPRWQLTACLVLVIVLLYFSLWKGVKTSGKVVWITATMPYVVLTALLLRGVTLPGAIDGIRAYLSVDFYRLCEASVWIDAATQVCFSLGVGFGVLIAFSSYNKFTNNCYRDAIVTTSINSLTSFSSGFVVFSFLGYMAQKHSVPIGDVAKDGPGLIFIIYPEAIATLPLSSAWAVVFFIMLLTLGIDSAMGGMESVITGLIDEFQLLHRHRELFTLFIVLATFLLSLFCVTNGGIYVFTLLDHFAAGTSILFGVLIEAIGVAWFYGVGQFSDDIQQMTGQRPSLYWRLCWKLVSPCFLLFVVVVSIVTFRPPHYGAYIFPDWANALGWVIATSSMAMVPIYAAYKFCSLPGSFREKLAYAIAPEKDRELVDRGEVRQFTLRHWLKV

For the compound `Cc1cc(C)nc(NS(=O)(=O)c2ccc(N)cc2)n1` [SULFAMETHAZINE], the IC50 result (in [1]; in series [2]; in series [3]; on Cytochrome P450 2A6; in [4]; in series [5]) was “Not Active” each time. Moreover, the half-inhibitory concentration (IC50) entry (at Endothelin-1 receptor; on Adenosine receptor A3; in series [6]) was “Not Active” in each case. In addition, the Ki result (in series [3]; at Cytochrome P450 2A6; in [4]) was “Not Active” each time.
For the compound `C[C@]1(Cn2ccnn2)[C@H](C(=O)O)N2C(=O)C[C@H]2S1(=O)=O` [TAZOBACTAM], the IC50 entry (in series [1]; in series [2]; in series [3]; against Cytochrome P450 2A6; in series [4]; in series [5]) was “Not Active” in each case. Besides, the IC50 entry (against Endothelin-1 receptor; on Adenosine receptor A3; in [6]) was “Not Active” throughout. The Ki result (in [3]; on Cytochrome P450 2A6; in series [4]) was “Not Active” each time.
On to `CN1C(C(=O)Nc2ccccn2)=C(O)c2sccc2S1(=O)=O` [TENOXICAM], for which the IC50 result (in series [1]; in series [2]; in series [3]; against Cytochrome P450 2A6; in series [4]; in series [5]) was “Not Active” throughout. Moreover, the half-maximal inhibitory concentration (IC50) entry (at Endothelin-1 receptor; against Adenosine receptor A3; in series [6]) was “Not Active” each time. For the same compound, the Ki result (in series [3]; on Cytochrome P450 2A6; in series [4]) was “Not Active” in each case.
Regarding `O=C1CCC(N2C(=O)c3ccccc3C2=O)C(=O)N1` (configuration not stated) [THALIDOMIDE], the IC50 entry (in series [1]; in series [2]; in [3]; against Cytochrome P450 2A6; in [4]; in series [5]) was “Not Active” each time. Moreover, the IC50 entry (on Endothelin-1 receptor; on Adenosine receptor A3; in [6]) was “Not Active” in each case. For the same compound, the Ki entry (in [3]; at Cytochrome P450 2A6; in series [4]) was “Not Active” each time.
For `Cc1cccc(Nc2ccncc2S(=O)(=O)NC(=O)NC(C)C)c1` [TORSEMIDE], the concentration for half-maximal inhibition (IC50) result (in series [1]; in [2]; in series [3]; on Cytochrome P450 2A6; in series [4]; in series [5]) was “Not Active” in each case. Also, the IC50 result (against Endothelin-1 receptor; against Adenosine receptor A3; in series [6]) was “Not Active” throughout. Also, the Ki entry (in series [3]; on Cytochrome P450 2A6; in [4]) was “Not Active” in each case.
`CC(C)C[C@H](NC(=O)[C@@H](O)[C@H](N)Cc1ccccc1)C(=O)O` [UBENIMEX]: the IC50 result (in series [1]; in series [2]; in series [3]; on Cytochrome P450 2A6; in series [4]; in series [5]) was “Not Active” throughout. Moreover, the IC50 result (against Endothelin-1 receptor; against Adenosine receptor A3; in series [6]) was “Not Active” each time. The Ki result (in series [3]; at Cytochrome P450 2A6; in series [4]) was “Not Active” throughout.
In the case of `Cc1onc(-c2ccccc2)c1-c1ccc(S(N)(=O)=O)cc1` [VALDECOXIB], the IC50 entry (in series [1]; in series [2]; in series [3]; on Cytochrome P450 2A6; in series [4]; in [5]) was “Not Active” throughout. In addition, the IC50 entry (against Adenosine receptor A3; in [6]) was “Not Active” each time. The Ki entry (in series [3]; at Cytochrome P450 2A6; in [4]; on Endothelin-1 receptor) was “Not Active” in each case.
Regarding `CC[C@]1(O)C[C@@H]2CN(CCc3c([nH]c4ccccc34)[C@@](C(=O)OC)(c3cc4c(cc3OC)N(C)[C@H]3[C@@](O)(C(=O)OC)[C@H](OC(C)=O)[C@]5(CC)C=CCN6CC[C@]43[C@@H]65)C2)C1` [VINBLASTINE], the IC50 result (in [1]; in series [2]; in [3]; against Cytochrome P450 2A6; in series [4]; in series [5]) was “Not Active” throughout. For the same compound, the IC50 result (on Endothelin-1 receptor; on Adenosine receptor A3; in series [6]) was “Not Active” throughout. For the same compound, the Ki result (in [3]; at Cytochrome P450 2A6; in series [4]) was “Not Active” throughout.
`CC(=O)CC(c1ccccc1)c1c(O)c2ccccc2oc1=O` (configuration not stated) [WARFARIN]: the IC50 result (in series [1]; in series [2]; in series [3]; at Cytochrome P450 2A6; in series [4]; in [5]) was “Not Active” throughout. In addition, the IC50 result (against Endothelin-1 receptor; against Adenosine receptor A3; in series [6]) was “Not Active” throughout. Besides, the Ki result (in series [3]; at Cytochrome P450 2A6; in [4]) was “Not Active” each time.
For the compound `C[C@@H](N)[C@H]1CC[C@H](C(=O)Nc2ccncc2)CC1` [Y-27632], the IC50 result (in series [1]; in series [2]; in [3]; against Cytochrome P450 2A6; in [4]; in [5]) was “Not Active” each time. Also, the IC50 entry (against Endothelin-1 receptor; on Adenosine receptor A3; in [6]) was “Not Active” throughout. Besides, the Ki result (in series [3]; at Cytochrome P450 2A6; in series [4]) was “Not Active” throughout.
On to `[Cl-].[Cl-].[Zn+2]` [ZINC CHLORIDE], for which the IC50 entry (in series [1]; in [2]; in [3]; against Cytochrome P450 2A6; in series [4]; in series [5]) was “Not Active” throughout. Moreover, the IC50 entry was “Not Active” against Endothelin-1 receptor, “Not Active” against Adenosine receptor A3 and 1100 nM in [6] (read-out: IC50). Moreover, the Ki result (in series [3]; on Cytochrome P450 2A6; in [4]) was “Not Active” in each case.

By IC50 is commonly meant the concentration that inhibits the measured activity by half.
